Test results published in PubChem BioAssay AID1259411 (Chemical Carcinogenesis Research Information System (CCRIS), 2018).
The source made the active and inactive calls. How the calls were made is not given here.

Test system: rodent carcinogenicity bioassays, tumor incidence
Experiment: CCRIS carcinogenicity studies
Method in brief: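 NCI-built, expert-reviewed records of carcinogenicity and related test outcomes (mutagenicity, tumor promotion/inhibition) compiled from published and report sources, historical span 1985-2011, not updated.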

Measured: carcinogen call

CCOC(N)=O
active: Species: HAMSTER, Route: DERMAL, Tumor Site: Type of Lesion: INTEGUMENTARY SYSTEM (SKIN), MAMMARY GLAND active; positive | Species: HAMSTER, Route: INTRAPERITONEAL, Tumor Site: Type of Lesion: INTEGUMENTARY SYSTEM (SKIN) active; positive | Species: HAMSTER, Route: ORAL, Tumor Site: Type of Lesion: FORESTOMACH, INTEGUMENTARY SYSTEM (SKIN) active; positive | Species: HAMSTER, Route: SUBCUTANEOUS, Tumor Site: Type of Lesion: ADRENAL GLAND, FORESTOMACH, INTESTINES, INTEGUMENTARY SYSTEM (SKIN), Tumor Site: Type of Lesion: ADRENAL GLAND, FORESTOMACH, INTESTINES, INTEGUMENTARY SYSTEM (SKIN) active; positive | Species: MOUSE, Route: INHALATION, Tumor Site: Type of Lesion: LUNG active; positive | Species: MOUSE, Route: INTRAPERITONEAL, Tumor Site: Type of Lesion: HEMATOPOIETIC SYSTEM (LEUKEMIA), LYMPHATIC SYSTEM: LYMPHOMA, LUNG, LIVER, HARDERIAN GLAND, OVARIES, Tumor Site: Type of Lesion: HEMATOPOIETIC SYSTEM (LEUKEMIA), LYMPHATIC SYSTEM: LYMPHOMA, LUNG, LIVER, HARDERIAN GLAND, OVARIES active; positive | Species: MOUSE, Route: INTRAPERITONEAL, Tumor Site: Type of Lesion: LUNG, LIVER active; positive | Species: MOUSE, Route: ORAL, Tumor Site: Type of Lesion: HEMATOPOIETIC SYSTEM (LEUKEMIA): LYMPHOCYTIC LEUKEMIA, LYMPHATIC SYSTEM: LYMPHOSARCOMA, MAMMARY GLAND, LUNG, LIVER, THYM, Tumor Site: Type of Lesion: HEMATOPOIETIC SYSTEM (LEUKEMIA): LYMPHOCYTIC LEUKEMIA, LYMPHATIC SYSTEM: LYMPHOSARCOMA, MAMMARY GLAND, LUNG, LIVER, THYM active; positive | Species: MOUSE, Route: SUBCUTANEOUS, Tumor Site: Type of Lesion: HARDERIAN GLAND, HEMATOPOIETIC SYSTEM (LEUKEMIA), LIVER, LUNG, Tumor Site: Type of Lesion: HARDERIAN GLAND, HEMATOPOIETIC SYSTEM (LEUKEMIA), LIVER, LUNG active; positive | Species: MOUSE, Strain/Sex: B6C3F1/FEMALE (48/GROUP), Route: ORAL, Dose: 10, 30, 90 PPM IN DRINKING WATER (STUDY DURATION: 2 YRS), Dose: 10, 30, 90 PPM IN DRINKING WATER (STUDY DURATION: 2 YRS), Tumor Site: Type of Lesion: MAMMARY GLAND: ADENOACANTHOMA, ADENOCARCINOMA, OVARY: GRANULOSA CELL TUMOR (BENIGN OR MALIGNANT), SPLEEN: HEMANGIOSARCOM, Tumor Site: Type of Lesion: MAMMARY GLAND: ADENOACANTHOMA, ADENOCARCINOMA, OVARY: GRANULOSA CELL TUMOR (BENIGN OR MALIGNANT), SPLEEN: HEMANGIOSARCOM active; positive ; marginal but not significant increases of hemangiosarcomas occurred i | Species: MOUSE, Strain/Sex: B6C3F1/MALE (48/GROUP), Route: ORAL, Dose: 10, 30, 90 PPM IN DRINKING WATER (STUDY DURATION: 2 YRS), Dose: 10, 30, 90 PPM IN DRINKING WATER (STUDY DURATION: 2 YRS), Tumor Site: Type of Lesion: HEART: HEMANGIOSARCOMA, FORESTOMACH: SQUAMOUS CELL PAPILLOMA OR CARCINOMA (COMBINED), SKIN: SQUAMOUS CELL PAPILLOMA OR C, Tumor Site: Type of Lesion: HEART: HEMANGIOSARCOMA, FORESTOMACH: SQUAMOUS CELL PAPILLOMA OR CARCINOMA (COMBINED), SKIN: SQUAMOUS CELL PAPILLOMA OR C active; positive | Species: MOUSE, Strain/Sex: B6C3F1/MALE, FEMALE (48/GROUP), Route: ORAL, Dose: 10, 30, 90 PPM IN DRINKING WATER (STUDY DURATION: 2 YRS), Dose: 10, 30, 90 PPM IN DRINKING WATER (STUDY DURATION: 2 YRS), Tumor Site: Type of Lesion: LIVER: HEMANGIOSARCOMA, HEPATOCELLULAR ADENOMA OR CARCINOMA (COMBINED), LUNG: ADENOMA OR CARCINOMA (COMBINED): HARDERIAN active; positive | Species: MOUSE, Strain/Sex: B6C3F1/MALE, Route: INTRAPERITONEAL, Dose: 0, 125 UG/G BW IN 10 µL TRIOCTANOIN ONCE (STUDY DURATION: 9 MO), Tumor Site: Type of Lesion: LIVER: HEPATOMA active; positive | Species: MOUSE, Strain/Sex: B6C3F1/MALE, Route: ORAL, Dose: 0, 0.6, 3, 6, 60, 600 PPM IN DRINKING WATER FOR 70 WK (STUDY DURATION: 70 WK), Dose: 0, 0.6, 3, 6, 60, 600 PPM IN DRINKING WATER FOR 70 WK (STUDY DURATION: 70 WK), Tumor Site: Type of Lesion: LUNG: ALVEOLAR/BRONCHIOLAR CARCINOMA, ALVEOLAR/BRONCHIOLAR ADENOMA, LIVER: ANGIOSARCOMA, HEMANGIOMA active; positive | Species: MOUSE, Strain/Sex: C57BL, Route: INTRAPERITONEAL, Dose: 1.00 MG/G 10 TIMES AT WEEKLY INTERVALS, Tumor Site: Type of Lesion: THYMUS GLAND: LYMPHOSARCOMA, LUNG: ADENOMA active; positive | Species: MOUSE, Strain/Sex: CTM/MALE,FEMALE, Route: ORAL, Dose: 0, 0.4% IN DRINKING WATER, 1 OR 2 10-D TREATMENTS OR 1, 2 OR 3 5-D TREATMENTS WITH 10-D INTERVALS BETWEEN TREATMENTS, Dose: 0, 0.4% IN DRINKING WATER, 1 OR 2 10-D TREATMENTS OR 1, 2 OR 3 5-D TREATMENTS WITH 10-D INTERVALS BETWEEN TREATMENTS, Tumor Site: Type of Lesion: LUNG: ADENOMA, LYMPHOSARCOMA active; positive | Species: MOUSE, Strain/Sex: HR/HR/MALE, FEMALE, Route: DERMAL, Dose: 0, 10, 20, 40% IN 200 µL ACETONE 2/WK FOR STUDY DURATION (STUDY DURATION: 56-60 WK), Dose: 0, 10, 20, 40% IN 200 µL ACETONE 2/WK FOR STUDY DURATION (STUDY DURATION: 56-60 WK), Tumor Site: Type of Lesion: SKIN: CARCINOMA, PAPILLOMA, LUNG: ADENOMA active; positive | Species: MOUSE, Strain/Sex: HR/HR/MALE, FEMALE, Route: DERMAL, Dose: 0, 15, 30, 75% IN PROPYLENE GLYCOL 2/WK FOR STUDY DURATION (STUDY DURATION: 56-60 WK), Dose: 0, 15, 30, 75% IN PROPYLENE GLYCOL 2/WK FOR STUDY DURATION (STUDY DURATION: 56-60 WK), Tumor Site: Type of Lesion: SKIN: CARCINOMA, PAPILLOMA, LUNG: ADENOMA active; positive | Species: MOUSE, Strain/Sex: ICR/FEMALE, Route: INHALATION, Dose: 0, 0.25 UG/ML AIR FOR 0.25 D (TOTAL DOSE 0.25 UG/ML/D) (STUDY DURATION: 5 MO), Tumor Site: Type of Lesion: LUNG: TUMOR, HEMATOPOIETIC SYSTEM: LEUKEMIA active; positive | Species: MOUSE, Strain/Sex: ICR/FEMALE, Route: INHALATION, Dose: 0, 0.25 UG/ML AIR FOR 3 D (TOTAL DOSE 0.75 UG/ML/D) (STUDY DURATION: 5 MO), Tumor Site: Type of Lesion: LUNG: TUMOR, HEMATOPOIETIC SYSTEM: LEUKEMIA active; positive
